Test results taken from patent US20240368049A1, “ENHANCED PHYTOREMEDIATION FROM BIOAVAILABILITY OF PER- AND POLYFLUOROALKYL SUBSTANCES IN CONTAMINATED SOIL” (The Research Foundation for the State University of New York, priority 2023, published 2024).

Experiments:
[1] = SPLP (EPA method 1312) leachability of PFAS in biosolids amended soil; format: physicochemical; settings: for percentage of SPLP leachable PFAS in biosolids amended soil: without a sorbent, Day-80, pH 4.2
Description: PFAS in the freeze-dried timothy-grass shoots were extracted by MTBE-NaOH according to a previously developed method. Before extraction, each sample for extraction was spiked with 10 ng of 13C2-PFHxA as the surrogate for determining the extraction efficiency. EPA method 1312 (Synthetic Precipitation Leaching Procedure, SPLP) was performed on the biosolids amended soil after drying to determine the leachability of PFAS. Briefly, 20 mL of H2SO4/HNO3 reagent (60/40 wt/wt.) at pH=4.2 were added to the soil sample. The soil with the H2SO4/HNO3 reagent was then vortexed for 30s and shaken on an end over end mixer overnight. After centrifugation at 3500 g for 30 min, the supernatant was collected and subject to solid phase extraction (SPE) using HyperSep C18 cartridges (Thermo Scientific, Waltham, MA). The SPLP leachable PFAS on the C18 cartridges were eluted with 2 mL of methanol, followed by 2 mL of 0.1% NH40H amended methanol. The SPLP leachable PFAS in clean soil without biosolids amendment were analyzed as well. PFAS in the final plant extracts and SPLP leachates were quantified using a 1290 Infinity II LC system coupled with a 6470 Triple Quad Mass Spectrometer (LC-MS/MS, Agilent Technologies, Santa Clara, CA, USA).
FIG. 3 is a series of graphs 40 of percentages of leachable PFAS in biosolids-amended soil treated by different sorbents on Day-80 (n=3). Different letters represent significant differences among the treatments (p<0.05). […] Without a sorbent, almost 100% of leaching of PFHxA 42, PFHpA 44 and PFOA 46 was observed. Similarly to PFAS uptake by the shoots, a chain length effect was visible: the shorter the carbon chain of PFAS, the higher the leachability. […] Compared to PFAS concentrations in the shoots (FIG. 1), there was no positive correlation between acidic water leachable PFAS and the extent of shoot uptake for treatment with biochar at both doses and RemBind at the dose of 0.2%. Thus, results from SPLP at pH=4.2 for sites east of the Mississippi River may not be able to predict bioavailable PFAS to the studied grass. The SPLP is an established and widely adopted EPA method for investigating leaching of organic contaminants in soil. One should note that the acidic water used in the leaching procedure may actually decrease PFAS leaching due to the acidic nature of PFAAs. But since the focus here was to evaluate the effect of different sorbents toward stabilizing PFAS in soil amended by biosolids, the SPLP served our purpose well.

[2] = tested on: timothy-grass (Phleum pratense); assay: uptake of PFAS by timothy-grass shoots grown in biosolids-amended soil treated by a sorbent or SDS; format: in vivo
Text: The method uses the addition of a mobilizing reagent, at a predetermined dose as described herein, to amend the soil around a root system of one or more plants. The supplementing of the amended soil with a stabilizing reagent at a predetermined dose, as also defined below. In one embodiment, the preparation of biosolids amended soil uses a sandy loam soil used in this study (pH=7.56), which was collected from a local farm in Albany County, New York. The soil was passed through a 2-mm sieve before use. The contents of natural organic matter and total organic carbon of the sieved soil were 4.82±0.12% and 2.44±0.45%, respectively. The sieved soil was mixed with vermiculite in a 1:1 vol ratio for increasing water retention of the soil and improving soil aeration. Then, the processed soil for plant cultivation was distributed to 7-quart polypropylene containers (14.375″L×8.25″W×6″H). Each container had 1.3 kg of dry soil.
The biosolids after anaerobic digestion of sludge were collected from a nearby wastewater treatment plant close to University at Albany. The total solid and total organic carbon of the biosolids were 24.16±0.21% and 28.64±0.28%, respectively. […]
Timothy-grass seeds were purchased from OrOlam LLC (South Miami, FL). […] Around 1 g of the plant tissues from each treatment was used for chlorophyll extraction and quantification. […]

[3] = tested on: timothy-grass (Phleum pratense); assay: chlorophyll content of timothy-grass shoots; format: in vivo; settings: mobilization treatment with SDS
Description: Timothy-grass seeds were purchased from OrOlam LLC (South Miami, FL). One gram of seeds was sown evenly in each tank containing the prepared biosolids amended soil. Enough water was then added to each tank to reach 100% of field capacity. The plants were cultivated in a greenhouse and watered every day. The timothy-grass started germinating on the 5th day after sowing. On Day-40 after seed germination, the above-ground shoots of the grass in each tank were cut and rinsed thoroughly using deionized water. Around 1 g of the plant tissues from each treatment was used for chlorophyll extraction and quantification. The remaining plant shoots were freeze-dried at −37° C. for 48 h and subject to PFAS extraction and analysis. The plants after cutting were kept under the same growth condition. On Day-80 after seed germination or day-40 after the first cut, the plant shoots were removed again and subject to chlorophyll and PFAS analysis. […]
On Day-40 and Day-80 after seed germination, 100 mg of fresh grass leaves were collected and used to quantify chlorophyll content. […] After 48 h, the chlorophyll concentration in the solvent was determined using a UV-Vis spectrophotometer (GENESYS 10S, Thermo Fisher Scientific, altham, MA, USA). The absorbance was read at 664 and 647 nm and used to calculate chlorophyll a and b and total chlorophyll content according to these equations: […]

Row | SMILES | percentage of SPLP leachable PFAS in biosolids amended soil [1] [%] | effect on uptake of PFAS by the shoots ([2]; SDS 100 mg/kg, Day-40, exceptions PFOA and PFOS) | effect on ΣPFAS uptake by the shoots ([2]; SDS, all three doses (10, 50, 100 mg/kg), Day-80) | effect on acidic water leachable PFAS in biosolids amended soil ([1]; SDS at a dose up to 100 mg/kg) | effect on chlorophyll content in timothy-grass [3]
1 | O=C(O)C(F)(F)C(F)(F)C(F)(F)C(F)(F)C(F)(F)C(F)(F)C(F)(F)F [PFOA, perfluorooctanoic acid] | ~100 |  |  |  | 
2 | O=C(O)C(F)(F)C(F)(F)C(F)(F)C(F)(F)C(F)(F)F [PFHxA, perfluorohexanoic acid] | ~100 |  |  |  | 
3 | CCCCCCCCCCCCOS(=O)(=O)[O-].[Na+] [SDS, sodium dodecyl sulphate] |  | significantly higher uptake of PFAS | significantly higher PFAS uptake | did not significantly increase | did not change the chlorophyll content
4 | O=C(O)C(F)(F)C(F)(F)C(F)(F)C(F)(F)C(F)(F)C(F)(F)F [PFHpA, perfluoroheptanoic acid] | ~100 |  |  |  | 
